In PubChem BioAssay AID328 (DTP/NCI, 2004):
Values joined by “and” are separate entries in the source; they are usually repeats but may differ in a detail not shown here. Equal values may be shown once. Toxic doses and inconclusive results are not listed.

Test system: BDF1 mice, P388 leukemia ip, median survival T/C
Experiment: NCI In Vivo Anticancer Drug Screen. Data for tumor model P388 Leukemia (intraperitoneal) in B6D2F1 (BDF1) mice
Conditions: endpoint: median survival time, higher = longer survival
Experimental: The antitumor activity of compounds was measured in mice bearing transplantable tumors. Survival or tumor size were measured and the results are expressed as the measurement made in the treated group (T) divided by the measurement made in the vehicle treated control group (C). The tumor model used in this assay is P388 Leukemia (intraperitoneal) in B6D2F1 (BDF1) mice

[1] = dose: 25.0 mg/kg/injection, schedule: Q01DX009 (ip), vehicle: saline with Tween-80
[2] = dose: 50.0 mg/kg/injection, schedule: Q01DX009 (ip), vehicle: saline with Tween-80
[3] = dose: 100.0 mg/kg/injection, schedule: Q01DX009 (ip), vehicle: saline with Tween-80
[4] = dose: 200.0 mg/kg/injection, schedule: Q01DX009 (ip), vehicle: saline with Tween-80
[5] = dose: 50.0 mg/kg/injection, schedule: Q01DX009 (ip), vehicle: saline
[6] = dose: 25.0 mg/kg/injection, schedule: Q04DX003 (ip), vehicle: saline with Tween-80
[7] = dose: 50.0 mg/kg/injection, schedule: Q04DX003 (ip), vehicle: saline with Tween-80
[8] = dose: 12.5 mg/kg/injection, schedule: Q04DX003 (ip), vehicle: saline with Tween-80
[9] = dose: 100.0 mg/kg/injection, schedule: Q04DX003 (ip), vehicle: saline
[10] = dose: 50.0 mg/kg/injection, schedule: Q04DX003 (ip), vehicle: Klucel (hydroxypropylcellulose) (HPC)
[11] = dose: 100.0 mg/kg/injection, schedule: Q04DX003 (ip), vehicle: Klucel (hydroxypropylcellulose) (HPC)
[12] = dose: 200.0 mg/kg/injection, schedule: Q04DX003 (ip), vehicle: Klucel (hydroxypropylcellulose) (HPC)
[13] = dose: 400.0 mg/kg/injection, schedule: Q04DX003 (ip), vehicle: Klucel (hydroxypropylcellulose) (HPC)

`O=c1nc[nH]c(=O)[nH]1` was tested, and the T/C [1] was 97 % of control, the T/C [2] was 99 % of control and the T/C [3] was 97 % of control. The T/C [4] was 104 % of control.
For `O=C(c1ccccc1)N1CCC2OC2C1` (stereo unspecified), the T/C [5] was 94 % of control, the T/C (dose: 100.0 mg/kg/injection, schedule: Q01DX009 (ip), vehicle: saline) was 109 % of control and the T/C (dose: 200.0 mg/kg/injection, schedule: Q01DX009 (ip), vehicle: saline) was 100 % of control.
In the case of `CN1CCN(C2CCCCc3ccccc32)CC1` (stereo unspecified), the T/C [6] is reported as 104 % of control, the T/C [7] is reported as 113 % of control and the T/C (dose: 100.0 mg/kg/injection, schedule: Q04DX003 (ip), vehicle: saline with Tween-80) is reported as 109 % of control.
With `CC(/C=C/C(O)=C1/C(=O)CNC1=O)=C\[C@@H](C)[C@H]1O[C@@]2(C)O[C@H](C(=O)[C@@H]3O[C@@]32C)[C@@H]1C` the T/C (dose: 3.13 mg/kg/injection, schedule: Q01DX009 (ip), vehicle: saline with Tween-80) was 108 % of control, the T/C (dose: 6.25 mg/kg/injection, schedule: Q01DX009 (ip), vehicle: saline with Tween-80) was 105 % of control and the T/C (dose: 12.5 mg/kg/injection, schedule: Q01DX009 (ip), vehicle: saline with Tween-80) was 103 % of control. The T/C [1] was 100 % of control.
With `C1CCCCCC(NC2=NCCO2)CCCCC1` the T/C (dose: 3.13 mg/kg/injection, schedule: Q04DX003 (ip), vehicle: saline with Tween-80) was 95 % of control, the T/C (dose: 6.25 mg/kg/injection, schedule: Q04DX003 (ip), vehicle: saline with Tween-80) was 95 % of control and the T/C [8] was 108 % of control. The T/C [6] was 90 % of control and the T/C [7] was 90 % of control.
For `CN(C)c1ccc(C2OC3(CCCCC3)C[N+]23CCCC3)cc1` (stereo unspecified), the T/C (dose: 18.0 mg/kg/injection, schedule: Q01DX009 (ip), vehicle: saline) was 110 % of control, the T/C (dose: 25.0 mg/kg/injection, schedule: Q04DX003 (ip), vehicle: saline) was 95 % of control and the T/C (dose: 28.0 mg/kg/injection, schedule: Q01DX009 (ip), vehicle: saline) was 105 % of control. The T/C (dose: 40.0 mg/kg/injection, schedule: Q01DX009 (ip), vehicle: saline) was 94 % of control, the T/C (dose: 50.0 mg/kg/injection, schedule: Q04DX003 (ip), vehicle: saline) was 100 % of control and the T/C (dose: 75.0 mg/kg/injection, schedule: Q01DX001 (ip), vehicle: Klucel (hydroxypropylcellulose) (HPC)) was 104 % of control. For the same molecule, the T/C [9] was 90 % of control and the T/C (dose: 150.0 mg/kg/injection, schedule: Q01DX001 (ip), vehicle: Klucel (hydroxypropylcellulose) (HPC)) was 100 % of control.
With `CO[C@@H]1[C@@H](OC2OC(C)C(OC3CC(C)(O)C(OC(=O)CC(C)C)C(C)O3)C(N(C)C)C2O)[C@@H](CC=O)C[C@@H](C)C(=O)/C=C/C2O[C@H]2C[C@@H](C)OC(=O)C[C@H]1OC(C)=O` (stereo partly specified) the T/C (dose: 50.0 mg/kg/injection, schedule: Q#A X020 (ip), vehicle: water) was 109 % of control, the T/C (dose: 100.0 mg/kg/injection, schedule: Q01DX001 (ip), vehicle: water) was 110 % of control and the T/C (dose: 100.0 mg/kg/injection, schedule: Q01DX010 (ip), vehicle: water) was 118 % of control. The T/C (dose: 100.0 mg/kg/injection, schedule: Q#A X020 (ip), vehicle: water) was 118 % of control, the T/C (dose: 150.0 mg/kg/injection, schedule: Q#A X020 (ip), vehicle: water) was 118 % of control and the T/C (dose: 200.0 mg/kg/injection, schedule: Q01DX001 (ip), vehicle: water) was 100 % of control. For the same molecule, the T/C (dose: 200.0 mg/kg/injection, schedule: Q01DX010 (ip), vehicle: water) was 109 % of control, the T/C (dose: 200.0 mg/kg/injection, schedule: Q#A X020 (ip), vehicle: water) was 118 % of control and the T/C (dose: 300.0 mg/kg/injection, schedule: Q01DX010 (ip), vehicle: water) was 118 % of control. For the same molecule, the T/C (dose: 400.0 mg/kg/injection, schedule: Q01DX001 (ip), vehicle: water) was 90 % of control, the T/C (dose: 600.0 mg/kg/injection, schedule: Q01DX001 (ip), vehicle: water) was 100 % of control and the T/C (dose: 1000.0 mg/kg/injection, schedule: Q01DX010 (oral), vehicle: water) was 86 % of control. The T/C (dose: 1500.0 mg/kg/injection, schedule: Q01DX010 (oral), vehicle: water) was 100 % of control.
For `O=C1C(Cl)=C(N=Nc2c(Cl)c(O)c3ccccc3c2O)C(=O)c2ccccc21`, the T/C (dose: 3.12 mg/kg/injection, schedule: Q01DX009 (ip), vehicle: Klucel (hydroxypropylcellulose) (HPC)) was 110 % of control, the T/C (dose: 6.25 mg/kg/injection, schedule: Q01DX009 (ip), vehicle: Klucel (hydroxypropylcellulose) (HPC)) was 115 % of control and the T/C (dose: 12.5 mg/kg/injection, schedule: Q01DX009 (ip), vehicle: Klucel (hydroxypropylcellulose) (HPC)) was 116 % of control. For the same molecule, the T/C (dose: 25.0 mg/kg/injection, schedule: Q01DX009 (ip), vehicle: Klucel (hydroxypropylcellulose) (HPC)) was 109 % of control.
For `COc1cc(C)c(Cl)c(C)c1C(C)=O`, the T/C [10] was 104 % of control, the T/C [11] was 95 % of control and the T/C [12] was 86 % of control.
`CC(=O)n1ccnc1/C=C\c1ccc([N+](=O)[O-])s1` was tested, and the T/C [10] was 95 % of control, the T/C [11] was 110 % of control and the T/C [12] was 105 % of control.
In the case of `Clc1ccccc1-c1nc(-c2ccncc2)no1`, the T/C [2] is reported as 89 % of control, the T/C [3] is reported as 93 % of control and the T/C [4] is reported as 100 % of control.
`Cc1nnc2c(=O)[nH]ccn12` was tested, and the T/C (dose: 100.0 mg/kg/injection, schedule: Q01DX001 (ip), vehicle: saline with Tween-80) was 106 % of control, the T/C (dose: 200.0 mg/kg/injection, schedule: Q01DX001 (ip), vehicle: saline with Tween-80) was 100 % of control and the T/C (dose: 400.0 mg/kg/injection, schedule: Q01DX001 (ip), vehicle: saline with Tween-80) was 103 % of control.
`C=CCCCC[P+](c1ccccc1)(c1ccccc1)c1ccccc1` was tested, and the T/C (dose: 0.75 mg/kg/injection, schedule: Q01DX010 (ip), vehicle: saline) was 110 % of control, the T/C (dose: 1.5 mg/kg/injection, schedule: Q01DX010 (ip), vehicle: saline) was 115 % of control and 120 % of control and the T/C (dose: 6.0 mg/kg/injection, schedule: Q01DX010 (ip), vehicle: saline) was 152 % of control. For the same molecule, the T/C (dose: 12.0 mg/kg/injection, schedule: Q01DX010 (ip), vehicle: saline) was 110 % of control.
`OCC(O)CCBr` (stereo unspecified) was tested, and the T/C (dose: 264.0 mg/kg/injection, schedule: Q01DX009 (ip), vehicle: saline with Tween-80) was 150 % of control, the T/C (dose: 400.0 mg/kg/injection, schedule: Q01DX009 (ip), vehicle: saline with Tween-80) was 170 % of control and the T/C (dose: 600.0 mg/kg/injection, schedule: Q01DX009 (ip), vehicle: saline with Tween-80) was 208 % of control.
For `Nc1nc(N)c2cc(CNc3ccc(C(=O)NC(CC(=O)O)CC(=O)O)cc3)ccc2n1`, the T/C (dose: 132.0 mg/kg/injection, schedule: Q01DX009 (ip), vehicle: saline with Tween-80) was 90 % of control.
In the case of `CCOC(=O)CC(=O)c1ccc(C)cc1`, the T/C [3] is reported as 90 % of control and the T/C [4] is reported as 90 % of control.
In the case of `O=C(/C=C\c1ccc(O)c(O)c1)OC1C(O)CC(OC(=O)/C=C/c2ccc(O)c(O)c2)(C(=O)O)CC1O` (stereo unspecified), the T/C (dose: 100.0 mg/kg/injection, schedule: Q01DX001 (ip), vehicle: saline) is reported as 95 % of control, the T/C [11] is reported as 100 % of control and the T/C (dose: 200.0 mg/kg/injection, schedule: Q01DX001 (ip), vehicle: saline) is reported as 95 % of control. The T/C [12] was 100 % of control, the T/C (dose: 400.0 mg/kg/injection, schedule: Q01DX001 (ip), vehicle: saline) was 95 % of control and the T/C [13] was 95 % of control.
For `CN1CCC(S)(S)CC1`, the T/C [8] was 100 % of control, the T/C [6] was 100 % of control and the T/C [7] was 109 % of control.
`O=C(Cc1ccccc1)OCC#CC#CCOC(=O)Cc1ccccc1` was tested, and the T/C (dose: 100.0 mg/kg/injection, schedule: Q01DX009 (ip), vehicle: Klucel (hydroxypropylcellulose) (HPC)) was 100 % of control, the T/C [11] was 90 % of control and the T/C (dose: 200.0 mg/kg/injection, schedule: Q01DX009 (ip), vehicle: Klucel (hydroxypropylcellulose) (HPC)) was 104 % of control. For the same molecule, the T/C [12] was 104 % of control, the T/C (dose: 400.0 mg/kg/injection, schedule: Q01DX009 (ip), vehicle: Klucel (hydroxypropylcellulose) (HPC)) was 100 % of control and the T/C [13] was 109 % of control.
`CCN(CC)CCN1C(=O)c2cccc3cccc(c23)C1=O` was tested, and the T/C [5] was 105 % of control, the T/C (dose: 66.0 mg/kg/injection, schedule: Q01DX009 (ip), vehicle: saline) was 109 % of control and the T/C [9] was 110 % of control. The T/C (dose: 150.0 mg/kg/injection, schedule: Q01DX009 (ip), vehicle: saline) was 172 % of control and 181 % of control and the T/C (dose: 200.0 mg/kg/injection, schedule: Q04DX003 (ip), vehicle: saline) was 95 % of control.
